One data set deals with S. aureus strain Xen36. In words: MIC of XEN36 for each antibiotic. The data set is classed as cell-based, Staphylococcus aureus. To be noted: S. aureus XEN36; for MIC: Staphylococcus aureus, read-out: MIC of XEN36. Here is the method:
S. aureus strain Xen36 (PerkinElmer, Waltham, Mass.) previously derived from the clinical bacteremia isolate ATCC 49525 (Wright) was used in all experiments. (Francis et al., 2000). […] (Francis et al., 2000). Xen36 was prepared for inoculation as previously described. (Niska et al., 2013; Pribaz et al. (2012)).

A short description of data set [1]: In vitro release of antibiotics from PLGA/PCL composite coatings on titanium K-wires (HPLC). The data set is classed as physicochemical. As to conditions: for release kinetics after storage: stored coated pins, two-week in vitro release. Here is the method:
(§1) The release rate of the polymer composite film was measured by HPLC. Drug release studies were conducted using coated pins created with the same loading parameters as those used for later in vivo testing (10% (w/w) drug combinations) electrospun for 60 seconds at injection rates of 0.5 mL/h from each needle. Release rate of antibiotics from the composite polymer coating was characterized by placing coated pins in 200 μL pH 7.4 PBS buffer and incubating at 37° C. in an aluminum film-covered incubator to prevent possible light-induced drug degradation. Release media was changed at fixed time points over a period of two weeks and stored in a −20° C. freezer until analysis. Drug concentrations in release media for each day were determined via reverse-phase HPLC using a C-18 column in an Alliance HPLC system and Waters 2996 PDA detector. The mobile phase was a mixture of acetonitrile and water both mixed with 0.1% TFA acid, which was run at a gradient from (15%/85%) to (40%/60%) for a total runtime of 15 minutes per sample for the elution of Van/Rif and Lin/Rif drug loading groups. Elution of the Dap/Rif loading group was conducted using a mobile phase of (49%/51%) of acetonitrile and water both mixed with 0.1% TFA acid for a total run time of 11 minutes per sample. Concentrations of the drugs were quantified using wavelengths of 343 nm for Rif, 254 nm for Lin, 280 nm for Van and 223 nm for Dap using prepared standard curves for all three drugs. […] Quantification was performed through the derivatization of Gentamicin with ninhydrin at 95° C. for 15 minutes and detection with a Biotek Synergy2 plate reader.
Long-term efficacy of the antimicrobial activity was tested by storing electrospun pins at room temperature for 6 weeks, −20° C. for 6 weeks, and −80° C. for 8 months. Coated pins were protected from light during storage. These pins were then used in the same zone of inhibition assay as described hereinabove.
Drug release studies were conducted using coated pins created with the same loading parameters as detailed above. Release kinetics of antibiotics from the composite coating were characterized by placing coated pins in 200 μL of phosphate buffer saline (PBS, pH 7.4) at 37° C. Release media was changed daily over a period of two weeks and stored at −20° C. until analysis. Drug concentrations in release media were measured on days 1, 2, 3, 5, 7, 10 and 14 using a Waters Alliance 2690 HPLC system (Waters Corporation, Milford, Mass.) equipped with an Accucore RP-MS C18 column (100 mm×2.1 mm; Thermo Fisher Scientific) and a Waters 2996 PDA detector. The elution was carried out with a mobile phase of water and acetonitrile both mixed with 0.1% TFA at a flow rate of 1 mL/min at ambient temperature using a linear gradient elution program of 85% water to […] in 15 minutes. Concentrations of the drugs were quantified using wavelengths for Van (280 nm), Lin (254 nm), Dap (224 nm) and Rif (263 nm).

Another data set deals with S. aureus. In words: In vitro zone of inhibition assay of coated K-wires. The data set is classed as cell-based, Staphylococcus aureus. As to conditions: 6 weeks room temperature, 6 weeks −20° C., 8 months. The source says: A zone of inhibition assay was used as an additional assay to evaluate the in vitro release of antibiotic(s) from the composite coating. Tryptic soy agar bacterial plates were inoculated with S. aureus bacteria cells to yield a bacterial lawn after overnight culture. After bacterial inoculation and before culturing the plates, two identical titanium K-wires loaded with either 10 w/w % Lin, 10 w/w % Van, or 10 w/w % Dap alone, or in combination with Rif were placed in two separate areas on the plate. After culturing the plates at 37° C. for 24 hours, the antimicrobial activity of the eluded antibiotic(s) into the agar was measured as a zone of inhibition (diameter [mm]) of the bacterial growth around the K-wire.
Long-term efficacy of the antimicrobial activity was tested by storing electrospun pins at room temperature for 6 weeks, −20° C. for 6 weeks, and −80° C. for 8 months. Coated pins were protected from light during storage. These pins were then used in the same zone of inhibition assay as described hereinabove. These antimicrobial results were further confirmed with a two-week in vitro release study to determine release kinetics after storage.
Tryptic soy agar (TSA) bacterial plates were inoculated with S. aureus to yield a bacterial lawn after overnight culture. Before culturing the plates, two titanium K-wires each loaded with the same combination of antibiotics from each set were placed in two separate areas on the plate. After culturing at 37° C. for 24 hours, the zone of inhibition (ZOI) (diameter/mm) of bacterial growth were measured.

Data set [2] can be described thus: Release kinetics of antibiotics from nanofiber-hydrogel composite sheet (HPLC). Type of data set: physicochemical. The source says: A sheet device was designed with the goal of reinforcing the implant soft tissue pocket, as well as serving as a platform for the local delivery of antibiotics. The device was composed of a polycaprolactone (PCL) nanofiber sheet core embedded within a nanofiber-hydrogel composite scaffold. The nanofiber core was created via random-pattern electrospinning of PCL dissolved in an organic solvent. An antibiotic-containing version was created by adding 1% w/w of linezolid and rifampicin to the starting PCL solution. All materials containing rifampicin were protected from light exposure to minimize risk of degradation. Next a composite scaffold was prepared by interfacially bonding 500-nm PCL nanofibers suspended within a hyaluronic acid matrix. The nanofiber sheet was then embedded within the composite scaffold and shaped to form a 1-mm thick sheet device. Release kinetics of each antibiotic were assessed using high-performance liquid chromatography (HPLC).

Data set [3] can be described thus: In vitro release of Gentamicin from PLGA nanofibers / composite coating (ninhydrin). The data set is classed as physicochemical. As to the method:
The drug groups tested all included Rifampin (Rif), and the second drug was varied among linezolid (Lin), vancomycin (Van), and daptomycin (Dap). Each drug group combination of Rif and a secondary drug was tested with five pin groups as shown in Sets 1-3 (FIG. 1E). To load the antibiotics into the polymer nanofibers or film, Rif and Lin were dissolved in corresponding 10% w/w PLGA or PCL polymer solution prior to electrospinning. Van or Dap was first dissolved in dimethyl sulfoxide (DMSO) to form a 20% (w/w) solution before being added into their respective polymer solutions to form a suspension. This suspension can be electrospun in a relatively uniform fashion. Suspensions using water as a solvent were also produced using the model drug Gentamicin (Gent). Briefly, Gent was dissolved in DI water to form a 30% (w/w) solution before being added to a PLGA solution dissolved in HFIP. The suspension was stabilized through prolonged sonication and vortexing prior to electrospinning.
as §1, with “drugs. As an example, FIG. 3A and FIG. 3B show the in vitro release profiles of Lin and Rif from the composite coating on titanium K-wire implants.” for “drugs.”

For the molecule `CCCCCCCCCC(=O)N[C@@H](Cc1c[nH]c2ccccc12)C(=O)N[C@H](CC(N)=O)C(=O)N[C@@H](CC(=O)O)C(=O)N[C@@H]1C(=O)NCC(=O)N[C@@H](CCCN)C(=O)N[C@@H](CC(=O)O)C(=O)N[C@H](C)C(=O)N[C@@H](CC(=O)O)C(=O)NCC(=O)N[C@H](CO)C(=O)N[C@@H]([C@H](C)CC(=O)O)C(=O)N[C@@H](CC(=O)c2ccccc2N)C(=O)O[C@@H]1C` [Dap, daptomycin], the minimal inhibitory concentration (MIC) in the data set with S. aureus strain Xen36 was 0.25 µg/mL. In addition, in data set [1], the “release kinetics after storage” value is “no difference in the release kinetics”. Moreover, the “antimicrobial activity (zone of inhibition) after storage versus freshly prepared coatings” value in the data set on S. aureus is “no significant loss of antimicrobial activity”.

Take `CC(=O)NC[C@H]1CN(c2ccc(N3CCOCC3)c(F)c2)C(=O)O1` [Lin, linezolid]: the minimal inhibitory concentration (MIC) with S. aureus strain Xen36 was 2 µg/mL. In addition, the “release kinetics after storage” value in data set [1] was “no difference in the release kinetics”. Also, in the data set on S. aureus, the “antimicrobial activity (zone of inhibition) after storage versus freshly prepared coatings” value was “no significant loss of antimicrobial activity”. Also, in data set [2], the “complete release from the nanofiber-hydrogel composite sheet” value is no more than 3 days and the “release from the nanofiber-hydrogel composite sheet within the first 24 hours” value amounted to 70%.

With `CO[C@H]1/C=C/O[C@@]2(C)Oc3c(C)c(O)c4c(O)c(c(/C=N/N5CCN(C)CC5)c(O)c4c3C2=O)NC(=O)/C(C)=C\C=C\[C@H](C)[C@H](O)[C@@H](C)[C@@H](O)[C@@H](C)[C@H](OC(C)=O)[C@@H]1C` [Rif, Rifampin], in the data set with S. aureus strain Xen36, the MIC is 0.5 µg/mL. Also, in data set [1] (in vitro release from composite coating), the “time Rif remains above the MIC, tuned by PCL molecular weight or PCL layer thickness” value is on record as 2 to 5 days. Further, the “release kinetics after storage” value in data set [1] was “reduced after storage at room temperature for six weeks, but not when the pins were stored at −20 °C”. Also, the “antimicrobial activity (zone of inhibition) after storage versus freshly prepared coatings” value with S. aureus is reported as “no significant loss of antimicrobial activity”. In data set [2], the “complete release from the nanofiber-hydrogel composite sheet” value is no more than 14 days and the “release from the nanofiber-hydrogel composite sheet within the first 24 hours” value was 70%.

Gentamicin: in the data set with S. aureus strain Xen36, the “MIC of XEN36” value is reported as “roughly 10 μg/mL”. Further, the values for the Gentamicin release profile entry in data set [3] (50:50 PLGA) and in data set [3] (75:25 PLGA) were “sustained release” and “only a burst release”, respectively. The “release of Gentamicin above the MIC, controlled by polymer choice” value in data set [3] (50:50 versus 75:25 PLGA) is reported as 2 to 14 days. The “Day 1 release of Gentamicin” value in data set [3] (PLGA nanofibers alone) was 80 % of total loading; in data set [3] (PLGA nanofibers embedded in PCL film layer), “less than 45 % of total loading”. Further, in data set [3] (in vitro release from PLGA nanofibers), the “time Gentamicin concentration at MIC could be sustained” value is reported as “up to 14 days”.

In general, MIC refers to the lowest concentration that inhibits growth of the organism.

The values are drawn from patent US20210322622A1, “COMPOSITIONS AND METHODS FOR PREPARATION OF COMPOSITE POLYMER FILMS ON NON-CONDUCTING SUBSTRATES, INCLUDING BANDAGES, AND THEIR USE FOR TREATING WOUNDS” (The Johns Hopkins University, priority 2018, published 2021).
